From patent US6194173A, “Binding proteins for phosphoinositides, GRP1 or general receptor 1 for phophoinositide” (priority 1999, dated 2001)
Where two headings read alike, the source gives them in different places.

Key:
[1] = target: T1, GSTPH(GRP) (Mus musculus, UniProt O08967); assay: Competition of [32P]PI(3,4,5)P3 binding to GST-PH by inositol phosphate head groups; set-up: species or system murine
T1 construct: residues 239 to 399 (PH domain); made in house; host or cells: bacteria
T1 sequence (O08967 239-399): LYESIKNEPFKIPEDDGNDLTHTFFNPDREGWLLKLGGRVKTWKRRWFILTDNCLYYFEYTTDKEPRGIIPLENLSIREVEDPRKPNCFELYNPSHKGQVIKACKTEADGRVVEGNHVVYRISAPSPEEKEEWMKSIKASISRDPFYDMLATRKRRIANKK
Text: To generate the GST fusion proteins, PCR reactions using the primers: […] (SEQ ID NO:9) and […] (SEQ ID NO:10) for the GST-N construct, […] (SEQ ID NO:11) and […] (SEQ ID NO:12) for the GST-Sec7 construct, […] (SEQ ID NO:13) and […] (SEQ ID NO:14) for the GSTPH construct, and […] (SEQ ID NO:15) and […] (SEQ ID NO:16) for the GSTGRP constructs. The sequences of the PCR products were verified, and cloned into pGEX-5X-3 in the EcoRI and Xba 1 sites. The bacteria were lysed and the fusion proteins were bound to gluthathione agarose according to standard procedures. Elution was effected by incubation of the beads with one volume 20 mM Hepes, 100 mM NaCl, 1 mM dithiotreitol (H buffer) supplemented with 10 mM gluthatione and 1% sodium cholate, and the eluate was dialyzed extensively against H buffer. For binding assays, protein was bound to nitrocellulose using a BIO-RAD BIO-DOT™ apparatus, using 150 pmol per well for binding assays and 7.5 pmol for competition assays. The nitrocellulose was washed in assay buffer, and 3 mm circles of the filters containing the protein were cut out and incubated in […] assay buffer with the relevant lipids and competitors for 2 h under constant agitation. The filters were washed four times with 1 mL assay buffer and counted in a scintillation counter.
The specificity of the GRP PH domain for binding [^32 P]PI(3,4,5,)P3 was also examined with respect to competition by the inositol phosphate head groups of the phosphoinositides. […] More specifically, 25,000 cpm of [^32 P]PI(3,4,5)P3 was incubated with varying concentrations of inositol 1 ,3,4,5P4 and bound radioactivity determined. The amount of radioactivity bound was calculated as percent of that bound in the absence of competitor. The values are means of quadruplicate measurements, and the error bars are standard deviations. The lack of inhibition by the latter two phosphoinositides is particularly striking since they carry the same charge as the inhibitor […] The concentration of inositol 1,3,4,5-P4 that inhibited binding of [^32 p]PI(3,4,5,)P3 half maximally was about 3-6 μM (FIG. 5A). Taken together, the data in FIGS. 4 and 5 indicate extraordinary specificity of the GRP PH domain for PI(3,4,5)P3. […] The binding to GST fusion proteins containing amino acids 462-569 of murine Sos or amino acid 13-115 of murine IRS-1 was assayed using 150 pmoles of protein bound to the filters. Competition of binding to 7.5 pmoles of GST-PH was measured in the presence of 100 μM of the competitors. The values were calculated as in (A), and are means of quadruplicate measurements and the error bars represent standard deviations.

[2] = target: T2, GRP (Mus musculus, UniProt O08967); assay: Inhibition by inositol phosphates of PtdIns(3,4,5)P3-stimulated GRP-mediated ARF1 exchange; format: biochemical; conditions: 100 μM inositol phosphate, 0.05% cholate and 0.05% CHAPS
T2 construct: GST (N, cleaved yes); made in house; host or cells: GRP from pGEX-4T; ARF1 from baculovirus-infected Sf-9 cells
T2 sequence (O08967 1-399): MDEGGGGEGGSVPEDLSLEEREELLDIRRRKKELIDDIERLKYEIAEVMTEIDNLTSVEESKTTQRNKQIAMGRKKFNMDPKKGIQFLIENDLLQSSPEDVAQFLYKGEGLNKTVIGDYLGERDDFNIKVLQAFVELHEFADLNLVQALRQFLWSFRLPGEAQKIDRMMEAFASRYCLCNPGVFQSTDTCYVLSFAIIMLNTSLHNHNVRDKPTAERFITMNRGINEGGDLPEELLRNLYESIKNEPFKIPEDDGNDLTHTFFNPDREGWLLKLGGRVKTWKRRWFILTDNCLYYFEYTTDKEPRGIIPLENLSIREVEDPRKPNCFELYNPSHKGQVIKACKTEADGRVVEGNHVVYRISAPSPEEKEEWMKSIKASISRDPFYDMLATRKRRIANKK

[3] = system: PH domain of PLCγ1; conditions: cited from earlier work
[4] = target: T3, PH domain of GRP (Mus musculus, UniProt O08967); assay: Binding of [3H]dioctanoyl PtdIns(3,4,5)P3 to GST-PH of GRP; set-up: GST fused to the PH region of GRP (amino acids 239-399); made in house; host or cells: bacteria
T3 sequence (O08967 239-399): T1 sequence (O08967 239-399)
Method: Binding assays were performed as described in (Rameh, L. E. et al., J. Biol. Chem., In Press). Briefly, GST fused to the PH region of GRP (amino acids 239-399) was bound to glutathione immobilized on agarose beads (Sigma). Synthetic [^3 H]-labeled diotanoyl PtdIns(3,4,5)P3 was added, and after one hour the beads were separated from the supernatant by centrifugation. The amount of [^3 H]-PtdIns(3,4,5)P3 bound to the PH domain was calculated by subtracting the amount of free [^3 H] present in supernatants from GST-GRP from the amount of free [^3 H] in supernatants from control GST. The data was fitted to the equation [bound]=Bmax×[free]/(KD + [free]) by least squares curve fit. For the competition assays the beads containing the GST-fusion proteins were incubated with 2.5 μM[^3 H]-labeled dioctanoyl PtdIns(3,4,5)P3 bound was calculated based on the amount of [^3 H] bound to the beads in the absence of competitor. […]
The data depicted in FIG. 8 indicate that receptor signaling through PI3-kinases, which generates PtdIns(3,4,5)P3, may specifically regulate ARF proteins through GRP. In order to further test this, the relative binding affinities of PtdIns(3,4,5)P3 versus PtdIns (4,5)P2, which is constitutively present in cell membranes, for the PH domain of GRP were determined. […] These experiments show high affinity binding of this polyphosphoinositide,with a calculated Kd=0.5 μM.

[5] = target: T3, PH domain of GRP; assay: Competition for [3H]dioctanoyl PtdIns(3,4,5)P3 binding to the PH domain of GRP; set-up: GST fused to the PH region of GRP (amino acids 239-399); made in house; host or cells: bacteria
Method: Binding assays were performed as described in (Rameh, L. E. et al., J. Biol. Chem., In Press). Briefly, GST fused to the PH region of GRP (amino acids 239-399) was bound to glutathione immobilized on agarose beads (Sigma). Synthetic [^3 H]-labeled diotanoyl PtdIns(3,4,5)P3 was added, and after one hour the beads were separated from the supernatant by centrifugation. The amount of [^3 H]-PtdIns(3,4,5)P3 bound to the PH domain was calculated by subtracting the amount of free [^3 H] present in supernatants from GST-GRP from the amount of free [^3 H] in supernatants from control GST. The data was fitted to the equation [bound]=Bmax×[free]/(KD + [free]) by least squares curve fit. For the competition assays the beads containing the GST-fusion proteins were incubated with 2.5 μM[^3 H]-labeled dioctanoyl PtdIns(3,4,5)P3 bound was calculated based on the amount of [^3 H] bound to the beads in the absence of competitor. The total [^3 H] bound to the GST control was less then 0.5% of the total [^3 H] bound to GRP PH domain. The data was fitted to the equation % bound=100-n×L/Klapp +L) where n is the % specific binding, L is the concentration of unlabeled lipid added and Klapp is the apparent competitive dissociation constant. The rations of the apparent dissociation constants accurately reflect the ratios of the true dissociation constants under the present experimental conditions (Rameh, L. E. et al., J. Biol. Chem., In Press).
The data depicted in FIG. 8 indicate that receptor signaling through PI3-kinases, which generates PtdIns(3,4,5)P3, may specifically regulate ARF proteins through GRP. In order to further test this, the relative binding affinities of PtdIns(3,4,5)P3 versus PtdIns (4,5)P2, which is constitutively present in cell membranes, for the PH domain of GRP were determined. A GST fusion protein of the PH domain of GRP was incubated with various concentrations of synthetic [^3 H]dioctanoyl PtdIns(3,4,5)P3 and binding was determined (FIG. 9A). These experiments show high affinity binding of this polyphosphoinositide,with a calculated Kd=0.5 μM.

[6] = system: receptor-regulated cell adhesion; conditions: cited from earlier work
[7] = target: T4, proteins encoded by both brain and adipocyte cDNA clones (GRP) (Mus musculus, UniProt O08967); assay: Binding of 32P-labeled phosphoinositides to protein of isolated cDNA clones on nitrocellulose filters (library screen); conditions: library screening conditions
T4 construct: lack four residues
T4 sequence (O08967 5-399): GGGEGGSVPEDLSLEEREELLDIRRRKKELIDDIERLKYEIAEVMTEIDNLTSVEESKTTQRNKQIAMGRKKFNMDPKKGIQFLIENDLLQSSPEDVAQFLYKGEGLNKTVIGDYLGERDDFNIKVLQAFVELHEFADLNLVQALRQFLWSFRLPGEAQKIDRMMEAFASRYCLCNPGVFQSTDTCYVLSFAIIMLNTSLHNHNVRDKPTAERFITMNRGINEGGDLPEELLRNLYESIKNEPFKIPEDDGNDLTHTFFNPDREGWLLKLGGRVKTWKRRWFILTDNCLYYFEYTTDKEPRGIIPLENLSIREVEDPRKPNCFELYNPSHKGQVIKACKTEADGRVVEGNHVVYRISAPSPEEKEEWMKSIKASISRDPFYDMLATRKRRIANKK

[8] = target: T3, PH domain of GRP; assay: Binding specificity of the GRP PH domain for 32P-labeled phosphoinositides (GST-PH on nitrocellulose); set-up: species or system murine; conditions: GST-PH, 25,000 cpm lipid; relative to GST
Method: The 3'-phosphatidylinositol probes labeled at the 3' position were generated using GST-p110 PI3-kinase purified from recombinant bacculovirus infected Sf 9 cells, using either purified phosphatidylinositol phosphates or crude brain lipid. Briefly, 20 mg phospholipid in chloroform was dried under N2 and resuspended in […] of buffer containing Tris-HCl pH 7.4, EDTA 1 mM and incubated in […] phopsphorylation media containing 20 mM Tris-HCl pH 7.4, 100 mM NaCl, 10 mM MgCl2, 0.5 mM EGTA. 0.2 mM adenosine, GST-p110 and 5-10 mCi [g-^32 P]ATP (5 Ci/umol). The reaction was carried out for 2 h at room temperature, quenched by addition of 0.2 ml of 1M HCl, followed by 0.5 ml of chloroform:methanol (1:1). The organic phase containing phospholipids was washed 4 times with 0.4 ml of methanol:HCl (1: 1) and stored at -70° C. until use. Just before use, the lipid was dried under a stream of nitrogen with phosphatidyl serine corresponding to a final concentration of 20 mg/ml. The identities of the PI3-P, PI3,4-P2 and PI3,4,5-P3 were confirmed by TLC and HPLC analysis.
To generate the GST fusion proteins, PCR reactions using the primers: […] (SEQ ID NO:9) and […] (SEQ ID NO:10) for the GST-N construct, […] (SEQ ID NO:11) and […] (SEQ ID NO:12) for the GST-Sec7 construct, […] (SEQ ID NO:13) and […] (SEQ ID NO:14) for the GSTPH construct, and […] […] The filters were washed four times with 1 mL assay buffer and counted in a scintillation counter.
In order to determine whether PI(3,4,5)P3 binding could be localized to specific sequences within the GRP structure, GST fusion proteins containing either residues 239 to 399 (PH domain), residues 52 to 260 (Sec7 domain), or residues 5 to 71, full length GRP residues 5-399 were expressed in bacteria and purified on glutathione-conjugated beads. […] 150 pmol of the proteins were spotted on nitrocellulose filters, incubated with [^32 P]PI(3,4,5)P3 and the amount of bound lipid was determined as described. […] Nitrocellulose filters with GST-PH were incubated with 25,000 cpm of each of the phospholipids and the amount of bound lipid determined as described above. […]

[9] = target: T2, GRP; assay: Effect of phosphoinositides on GRP-catalyzed ARF1 guanine nucleotide exchange; format: biochemical; conditions: 25 μM lipid, 0.15 μM GRP

Compound: O=P(O)(O)O[C@@H]1[C@H](O)[C@H](O)[C@@H](OP(=O)(O)O)[C@H](OP(=O)(O)O)[C@H]1O [Ins(1,4,5)P3, D-myo-inositol 1,4,5 trisphosphate]
- inhibition of [^32 P]PI(3,4,5)P3 binding to GST-PH(GRP) ([1]; 100 μM competitor): little or no effect
- binding of inositol phosphate to GRP polypeptides ([1]; statement in the description): not
- inhibition of PtdIns(3,4,5)P3-stimulated GRP-mediated ARF1 guanine nucleotide exchange [2]: failed to inhibit
- interaction with isolated PH domain of PLCγ1 [3]: high affinity

Compound: CCCCCCCC(=O)OCC(COP(=O)(O)O[C@H]1[C@H](O)[C@@H](OP(=O)(O)O)[C@H](OP(=O)(O)O)[C@@H](OP(=O)(O)O)[C@H]1O)OC(=O)CCCCCCC (stereo partly drawn) [[^3 H]dioctanoyl PtdIns(3,4,5)P3]
- Kd [4]: 510 nM
- Kd ([4]; synthetic [^3 H]dioctanoyl PtdIns(3,4,5)P3): 500 nM

Compound: CCCCCCCC(=O)OC[C@H](COP(=O)(O)O[C@H]1[C@H](O)[C@@H](OP(=O)(O)O)[C@H](OP(=O)(O)O)[C@@H](OP(=O)(O)O)[C@H]1O)OC(=O)CCCCCCC [dioctanoyl PtdIns(3,4,5)P3]
- affinity, fold higher compared to PtdIns(4,5)P2 ([5]; identical fatty acyl side chains (dioctanoyl)): 50-100 fold

Compound: CCCCCCCC(=O)OC[C@H](COP(=O)(O)O[C@@H]1[C@H](O)[C@H](O)[C@@H](OP(=O)(O)O)[C@H](OP(=O)(O)O)[C@H]1O)OC(=O)CCCCCCC [dioctanoyl PtdIns(4,5)P2]
- apparent affinity lower than that for dioctanoyl PtdIns(3,4,5)P3 ([5]; dioctanoyl): about two orders of magnitude lower

Compound: COC[C@H]1OC(=O)c2coc3c2[C@@]1(C)C1=C(C3=O)[C@@H]2CCC(=O)[C@@]2(C)C[C@H]1OC(C)=O [wortmannin]
- receptor-regulated cell adhesion [6]: inhibits receptor-regulated cell adhesion

Compound: PI(3)P
- binding of labeled phosphoinositide to the cDNA clone protein [7]: not
- binding of labeled phosphoinositide to the GRP PH domain [8]: failed to bind

Compound: PtdIns(3,4)P2
- binding of labeled phosphoinositide to the cDNA clone protein [7]: not
- binding of labeled phosphoinositide to the GRP PH domain [8]: failed to bind
- stimulation of ARF1 exchange activity in the presence of GRP ([9]; 0.05% cholate and 0.05% CHAPS (low negative charge)): little or no effect
- stimulation of ARF1 exchange activity in the presence of GRP ([9]; 0.1% cholate (high negative charge)): stimulated
